Assay results: US20230058160A1, “METABOLITE-BASED POLYMERS, MICROPARTICLES, AND NANOPARTICLES FOR IMMUNOTHERAPY AND METHODS OF TREATING A DISEASE OR DISORDER” (priority 2020, published 2023)
“Also recorded” adds a separate entry of the source.

How the values were obtained:
[1] = tested on: YUMM1.1 cells; test: MTT cell viability assay, YUMM1.1 melanoma cells; type: cell-based, mouse
Method: (§1) In order to determine if PFK15 prevents melanoma cell growth in vitro, two different mouse melanoma cells were utilized, namely YUMM1.1 (BrafV600E/wt, Pten−/− Cdkn2−/−MHClHi) and B16F10. Specifically, YUMM1.1 and B16F10 cells were cultured with different concentrations of […], and the percentage cell viability was determined using MTT assay.
as §1, with “if […]” for “if PFK15”, “YUMM1.1” for “YUMM1.1 (BrafV600E/wt, Pten−/− Cdkn2−/−MHClHi)”

[2] = tested on: DCs; test: Seahorse ECAR/OCR of dendritic cells (glycolysis stress test); type: cell-based, C57BL/6j mice
Method: In order to test if F16BP particles can rescue DCs from exhaustion when cultured in the presence of PFK15, ECAR using Seahorse assays was utilized. Specifically, DCs were cultured with either PFK 15 (200 nM), F16BP (0.1 mg/mL) or PFK15+F16BP with or without LPS and ECAR measurements were obtained.
Specifically, immature DCs were obtained from C57BL/6j mice and cultured with PEGS (0.1 mg/mL) with or without CB-839 (30 nM or 240 nM) for 16 hours. After 16 hours of incubation, DCs were incubated in glucose free medium and ECAR and OCR values were recorded using Seahorse extracellular flux (XF) analyzer (glucose addition at 20 min).

[3] = tested on: bone marrow derived dendritic cells; test: Dendritic cell activation by flow cytometry (MHCII, CD86, CD11c); type: cell-based, C57BL/6j mice; conditions: for DC activation (CD86+ and MHCII+CD86+ populations in CD11c+ DCs), inhibitor alone: 200 nM PFK15 or 30 nM CB-839; for concentration that prevented the activation of DCs: 24 hours incubation, MHCII, CD86, CD11c staining
Method: In order to test the effect of PFKFB3 inhibition on DC and T cell activation, PFK15 was employed. Specifically, DCs were isolated from bone marrow of C57BL/6j mice using GM-CSF, and incubated with different concentrations of PFK15 (50, 100, 200, 400, 800, 1600 nM) for 24 hours. These cells were then stained for MHCII, CD86 and CD 11c to determine activation profile. It was observed that at 200 nM and higher concentrations of PFK15 prevented the activation of DCs (FIG. 3—200 nM shown as example).
In order to test the effect of glutaminase inhibition on DC activation, bone marrow DCs were isolated from C57BL/6j mice and cultured with different concentrations of CB-839, a clinically validated molecule (0, 15, 30, 60, 120 nM) for 24 hours. These cells were then stained for MHCII, CD86, and CD11c to determine activation profile. It was observed that at 30 nM and higher concentrations of CB-839 prevented the activation of DCs (FIG. 11—30 nM is shown as a representative example).
Specifically, DCs were cultured in the presence of CB-839 with or without PEGS (0.1 mg/mL) and with or without LPS (0.1 μg/mL) for 24 hours. Cells were then stained for MHC-II, CD86 and CD11c and analyzed using flow cytometry.

[4] = tested on: YUMM1.1 tumors; test: YUMM1.1 tumor model in mice; type: in vivo
Method: In order to determine if the injection of F16BP particles in vivo can lead to longer survival in mice, study design shown in FIG. 7A and FIG. 7B was followed.
In order to test the efficacy of F16BP particles-based vaccines to reduce tumor growth in mice, C57BL/6j mice were utilized. Specifically, tumors were induced by injecting 0.75×10^6 cells in the back of the mice. From day 18 onwards, mice were injected with the F16BP based vaccines injected subcutaneously (0.5 mg/mouse) every 3 days (total 3 treatments—days 21, 24, 27) with PFK15 (5 mg/kg) injected every other day intraperitoneally (FIG. 7A—same study design as survival but mice euthanized day 28 for T cell analyses). Controls included PFK15 injections every alternate day, or no treatment. Mice were then sacrificed on day 26 and the tumors, draining lymph nodes, and non-draining contralateral lymph nodes were harvested.

[5] = tested on: B16F10 cells; test: MTT cell viability assay, B16F10 melanoma cells; type: cell-based, mouse
Method: as §1
as §1, with “if […]” for “if PFK15”, “YUMM1.1” for “YUMM1.1 (BrafV600E/wt, Pten−/− Cdkn2−/−MHClHi)”

Structure (SMILES)	IC50 ([1]; Mus musculus, MTT assay, percentage cell viability, read-out: IC50 to prevent proliferation of YUMM1.1 cells) [µM]	glycolysis and mitochondrial respiration in DCs (ECAR and OCR), CB-839 alone ([2]; 30 nM CB-839, 16 hours)	DC activation (CD86+ and MHCII+CD86+ populations in CD11c+ DCs), inhibitor alone [3]	concentration that prevented the activation of DCs [3] [nM]	killing of YUMM1.1 cells in vitro [1]	IC50 of YUMM1.1 melanoma cells using PFK-15 (FIG. 6B) ([1]; MTT assay, n=6) [µM]	tumor burden / tumor growth ([4]; F16BP vaccine 0.5 mg/mouse s.c., PFK15 5 mg/kg i.p., vs PFK15 alone and no treatment)	improvement of survival of mice ([4]; PFK15 5 mg/kg intraperitoneally every other day) [days]	ECAR of DCs, PFK15 without LPS ([2]; PFK15 200 nM without LPS)	DC activation (CD86+ and MHCII+CD86+ populations in CD11c+ DCs), inhibitor alone ([3]; listed as PFK-15)	killing of B16F10 cells in vitro [5]
O=C(Cc1cccc(OC(F)(F)F)c1)Nc1ccc(CCCCc2nnc(NC(=O)Cc3ccccn3)s2)nn1 [CB-839]	0.00375	block glycolysis and mitochondrial respiration; also recorded: do not upregulate glycolysis or mitochondrial respiration	significantly reduces activation in DCs	≥ 30	–	–	–	–	–	–	–
O=C(/C=C/c1ccc2ccccc2n1)c1ccncc1 [PFK15]	–	–	significantly reduces activation in DCs	≥ 200	able to kill	5	significant improvements in tumor burden	15	even lower than the no treatment control	downregulated	able to kill
